Source: patent US20210046018A1 (priority 2019, published 2021)

Assays:
[1] = test system: corneal epithelium; assay type: in vivo, rat; conditions: capsaicin application, FIG. 5C
Text: Deeper wounds may remove the basement membrane and prevent reinnervation (at least in some strains of mice).

[2] = test system: cultured trigeminal ganglion neurons; conditions: caused by nerve growth factor exposure; cited from earlier work
[3] = test system: rat; assay: Orbital tightening (OT) after heptanol corneal abrasion injury, pre-clinical model of PRK; assay type: in vivo; conditions: 24 hours post-injury; topical eye drops; FIG. 6B; abrasion increases OT scores
Experimental: A unilateral corneal injury was performed using topical application of heptanol. FIG. 3 is a diagram of a corneal abrasion method using topical application 310 of heptanol performed on an anesthetized rat. A local anesthetic was applied to the eye 320 via ophthalmic drops. A small metal ring 330 was then secured to the corneal surface with petroleum jelly. Heptanol (10 μL) 340 was placed inside the ring for 90 seconds, the heptanol was removed from inside the ring with a cotton swab and the eye is rinsed profusely with saline. The loose corneal epithelium was then removed with a cotton applicator 350. FIG. 4 is a graph representing of acute hyperalgesia after corneal abrasion injury, illustrating that this method induces photophobia as well as hyperalgesia to ocular application of menthol. This method produces abrasions of relatively uniform size and depth, in contrast to other mechanical abrasion methods.
In various embodiments, topical (ophthalmic) application of the compositions described herein can reduce or eliminate the hyperalgesia produced by corneal abrasion in a pre-clinical model of PRK. […]
Doses of trans-resveratrol up to 4% (corresponding to up to […] in 10 μL) were tested. […] Topical application is efficacious, because resveratrol is very lipophilic and should be readily taken up into the tear film that covers the surface of the eye. […]

[4] = test system: hindpaw incision; conditions: topical, cited from earlier work
[5] = test system: sodium channels; conditions: in vivo; cited from earlier work
[6] = cited from earlier work

COc1cc(CNC(=O)CCCC/C=C/C(C)C)ccc1O [capsaicin]
overall epithelial structure (H&E stain) [1]: does not alter overall epithelial structure

Oc1ccc(C=Cc2cc(O)cc(O)c2)cc1 (racemic) [resveratrol]
hyperexcitability of neurons [2]: reduce hyperexcitability
orbital tightening (OT) scores [3]: dose-dependent trend for resveratrol to reverse this
hyperalgesic priming ([4]; 14-days after incision): prevents the full development
acute hyperalgesia ([4]; following hindpaw incision): attenuates

NC1=N[C@H](O)[C@H]2[C@H]3O[C@]4(O)O[C@@H]([C@@H](O)[C@@]2(N1)[C@@H]4O)[C@]3(O)CO [TTX, tetrodotoxin]
photophobia [5]: can reduce the photophobia
solubility in tear film [6]: not soluble in tear film
